The source of these data is patent US20230284627A1, “ANTIMICROBIAL COMPOSITIONS AND METHODS OF USE AND FOR MAKING SAME” (MIG USA, LLC, priority 2020, published 2023).

This experiment has as its system Escherichia coli ATCC-25922, Klebsiella pneumonia ATCC-4352, Canadida albicans ATCC-10231, Pseudomonas aeruginosa ATCC-9027, Staphylococcus aureus ATCC-6538. Briefly: Lawn-spray assay of AM635 disinfectant spray in SDS (Example 5). The note with it: portions of the untreated area were also clear of bacterial growth. The format is cell-based. The protocol:
The efficacy of 0.5-2% SDS solutions (in DiH2O)+0.1-10% Silver 1-Methyl imidazole were tested by performing a lawn-spray assay. The Silver 1-Methylimidazole Complex 635 (AM635) disinfectant sprays in SDS were prepared as described in Example 4. Briefly, a lawn of bacteria/yeast from a newly grown broth culture were inoculated onto their preferred agar media by dipping a swab into each broth, fully wetting the swab end, then swiping the swab back-and-forth from the top to the bottom of the plate, then turning the plate for a ¼ turn and re-streaking from top to bottom again. This technique ensures for total coverage of the inoculating bacteria/yeast across the face of the agar media. The dish was then opened and a paper towel placed over the top of the plate to cover only half of the surface while not touching the agar surface, so that the other half is exposed to the air. This exposed half was then treated with 2-pumps from a spray bottle containing the AM635 in SDS composition, ensuring that the exposed half of the plate was saturated by the test product. Each plate was treated using the same 2-pump criteria. All plates were then incubated “agar-down” overnight at 37° C. to allow the bacteria to fully grow (at 30° C. for yeast). […]

Consider `CCCCCCCCCCCCOS(=O)(=O)[O-].[Na+]` [SDS, Sodium Dodecyl Sulfate], for which the “effect on untreated area of lawn plate” value was “hypermigration effect”.
